Laboratory results published in US12473304B2, “Heterocyclic PAD4 inhibitors” (BRISTOL-MYERS SQUIBB COMPANY, priority 2020, dated 2025).

What follows are compounds tested against human PAD4 (hPAD4) (Homo sapiens (Human), UniProt Q9UM07) (assay: RFMS Human PAD4 Functional Assay 1). Conditions: RFMS assay 1; 5 nM hPAD4, 250 μM BAEE substrate, 50 μM calcium, 37° C.
Chain of human PAD4 (hPAD4) (Q9UM07 whole entry): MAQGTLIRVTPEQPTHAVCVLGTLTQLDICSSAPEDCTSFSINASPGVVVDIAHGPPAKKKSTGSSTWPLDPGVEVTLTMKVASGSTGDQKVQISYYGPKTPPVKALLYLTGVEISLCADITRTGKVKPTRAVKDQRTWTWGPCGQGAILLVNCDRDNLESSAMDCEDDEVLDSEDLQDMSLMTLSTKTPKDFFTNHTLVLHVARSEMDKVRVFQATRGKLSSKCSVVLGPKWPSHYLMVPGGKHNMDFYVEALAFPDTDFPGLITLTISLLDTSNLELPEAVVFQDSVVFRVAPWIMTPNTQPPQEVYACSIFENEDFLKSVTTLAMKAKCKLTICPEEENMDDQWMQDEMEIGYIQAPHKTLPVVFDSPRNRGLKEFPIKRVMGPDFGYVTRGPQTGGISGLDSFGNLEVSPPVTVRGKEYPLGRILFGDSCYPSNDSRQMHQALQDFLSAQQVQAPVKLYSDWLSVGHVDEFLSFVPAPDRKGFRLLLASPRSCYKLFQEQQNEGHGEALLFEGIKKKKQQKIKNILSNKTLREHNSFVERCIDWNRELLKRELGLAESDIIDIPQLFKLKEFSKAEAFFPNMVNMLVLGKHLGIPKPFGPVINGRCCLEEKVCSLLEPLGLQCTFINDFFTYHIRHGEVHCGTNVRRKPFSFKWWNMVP
Type: biochemical
In short: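 Recombinant hPAD4 (5 nM) was preincubated with compound (top 50 μM, 0.5% DMSO) for 30 min at 37 °C, then reacted with 250 μM BAEE for 90 min at 37 °C in pH 7.5 HEPES buffer with 50 μM calcium and 5 μM TPEN. Product was derivatized with phenyl glyoxal and quantified by RapidFire MS.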
In the case of Cc1c(-c2cc3ccc(-c4ccc5c(c4)C(=O)NC5)nc3n2CC2CC2)nn2cc(C(=O)N3CCC[C@@H](N)C3)ccc12 [Example 315], the IC50 is reported as 340 nM.
In the case of Cc1cc(-c2ccc3cc(-c4nn5cc(C(=O)N6CCC[C@@H](N)C6)ccc5c4C)n(CC4CC4)c3n2)ccc1C(N)=O [Example 316, 4-(2-{6-[(3R)-3-Aminopiperidine-1-carbonyl]-3-methylpyrazolo[1,5-a]pyridin-2-yl}-1-(cyclopropylmethyl)-1H-pyrrolo[2,3-b]pyridin-6-yl)-2-methylbenzamide], the IC50 is reported as 250 nM.
Cc1c(-c2cc3ccc(-c4ccc5c(c4)CNC5=O)nc3n2CC2CC2)nn2cc(C(=O)N3CCC[C@@H](N)C3)ccc12 [Example 317, 5-(2-{6-[(3R)-3-Aminopiperidine-1-carbonyl]-3-methylpyrazolo[1,5-a]pyridin-2-yl}-1-(cyclopropylmethyl)-1H-pyrrolo[2,3-b]pyridin-6-yl)-2,3-dihydro-1H-isoindol-1-one] showed an IC50 of 510 nM.
Cc1c(-c2cc3ccc(N4CCOCC4)nc3n2CC2CC2)nn2cc(C(=O)N3CC4CCC3[C@@H]4N)ccc12 (stereo partly drawn) [Example 318, (7R)-2-{2-[1-(Cyclopropylmethyl)-6-(morpholin-4-yl)-1H-pyrrolo[2,3-b]pyridin-2-yl]-3-methylpyrazolo[1,5-a]pyridine-6-carbonyl}-2-azabicyclo[2.2.1]heptan-7-amine] showed an IC50 of 310 nM.
In the case of Cc1c(-c2cc3ccc(N4CCOCC4=O)nc3n2CC2CC2)nn2cc(C(=O)N3CC4CCC3[C@@H]4N)ccc12 (stereo partly drawn) [Example 319, 4-(2-{6-[(7R)-7-Amino-2-azabicyclo[2.2.1]heptane-2-carbonyl]-3-methylpyrazolo[1,5-a]pyridin-2-yl}-1-(cyclopropylmethyl)-1H-pyrrolo[2,3-b]pyridin-6-yl)morpholin-3-one], the IC50 is reported as 50 nM.
Cc1c(-c2cc3ccc(N4CCC(S(C)(=O)=O)CC4)nc3n2CC2CC2)nn2cc(C(=O)N3CC4CCC3[C@@H]4N)ccc12 (stereo partly drawn) [Example 320, (7R)-2-{2-[1-(Cyclopropylmethyl)-6-(4-methanesulfonylpiperidin-1-yl)-1H-pyrrolo[2,3-b]pyridin-2-yl]-3-methylpyrazolo[1,5-a]pyridine-6-carbonyl}-2-azabicyclo[2.2.1]heptan-7-amine] was tested, and the IC50 was 150 nM.
Compound Cc1c(-c2cc3ccc(-c4ccc5cn[nH]c5c4)nc3n2CC2CC2)nn2cc(C(=O)N3C[C@H](N)C[C@@H](F)C3)ccc12 [Example 321, (3R,5R)-1-{2-[1-(Cyclopropylmethyl)-6-(1H-indazol-6-yl)-1H-pyrrolo[2,3-b]pyridin-2-yl]-3-methylpyrazolo[1,5-a]pyridine-6-carbonyl}-5-fluoropiperidin-3-amine] has an IC50 of 15000 nM.
Cc1c(-c2cc3ccc(-c4cccc5[nH]ncc45)nc3n2CC2CC2)nn2cc(C(=O)N3C[C@H](N)C[C@@H](F)C3)ccc12 [Example 322, (3R,5R)-1-{2-[1-(Cyclopropylmethyl)-6-(1H-indazol-4-yl)-1H-pyrrolo[2,3-b]pyridin-2-yl]-3-methylpyrazolo[1,5-a]pyridine-6-carbonyl}-5-fluoropiperidin-3-amine] gave an IC50 of 500 nM.
Cc1c(-c2cc3ccc(-c4ccc5[nH]ncc5c4)nc3n2CC2CC2)nn2cc(C(=O)N3C[C@H](N)C[C@@H](F)C3)ccc12 [Example 323, (3R,5R)-1-{2-[1-(Cyclopropylmethyl)-6-(1H-indazol-5-yl)-1H-pyrrolo[2,3-b]pyridin-2-yl]-3-methylpyrazolo[1,5-a]pyridine-6-carbonyl}-5-fluoropiperidin-3-amine] gave an IC50 of 140 nM.
For Cc1c(-c2ccc3cc(-c4nn5cc(C(=O)N6C[C@H](N)C[C@@H](F)C6)ccc5c4C)n(CC4CC4)c3n2)cc(F)c2[nH]c(=O)ccc12 [Example 324, 6-(2-{6-[(3R,5R)-3-Amino-5-fluoropiperidine-1-carbonyl]-3-methylpyrazolo[1,5-a]pyridin-2-yl}-1-(cyclopropylmethyl)-1H-pyrrolo[2,3-b]pyridin-6-yl)-8-fluoro-5-methyl-1,2-dihydroquinolin-2-one], the IC50 was 110 nM.
With COC(=O)N(C)C1CCN(c2ccc3cc(-c4nn5cc(C(=O)N6C[C@H](N)C[C@@H](F)C6)ccc5c4C)n(CC4CC4)c3n2)CC1 [Example 325, Methyl N-[1-(2-{6-[(3R,5R)-3-amino-5-fluoropiperidine-1-carbonyl]-3-methylpyrazolo[1,5-a]pyridin-2-yl}-1-(cyclopropylmethyl)-1H-pyrrolo[2,3-b]pyridin-6-yl)piperidin-4-yl]-N-methylcarbamate] the IC50 was 1540 nM.
Compound Cc1c(-c2cc3ccc(-c4ccc(F)c5[nH]ncc45)cc3n2CC2CC2)nn2cc(C(=O)N3CC4CCC3[C@@H]4N)ccc12 (stereo partly drawn) [Example 326, (7R)-2-{2-[1-(Cyclopropylmethyl)-6-(7-fluoro-1H-indazol-4-yl)-1H-indol-2-yl]-3-methylpyrazolo[1,5-a]pyridine-6-carbonyl}-2-azabicyclo[2.2.1]heptan-7-amine] has an IC50 of 200 nM.
Cc1c(-c2cc3ccc(-c4cccc5[nH]nc(F)c45)cc3n2CC2CC2)nn2cc(C(=O)N3CC4CCC3[C@@H]4N)ccc12 (stereo partly drawn) [Example 327, (7R)-2-{2-[1-(Cyclopropylmethyl)-6-(3-fluoro-1H-indazol-4-yl)-1H-indol-2-yl]-3-methylpyrazolo[1,5-a]pyridine-6-carbonyl}-2-azabicyclo[2.2.1]heptan-7-amine] gave an IC50 of 70 nM.
Cc1c(-c2cc3ccc(-c4ccc(N5CCNC5=O)cc4)cc3n2CC2CC2)nn2cc(C(=O)N3CC4CCC3[C@@H]4N)ccc12 (stereo partly drawn) [Example 328, 1-[4-(2-{6-[(7R)-7-Amino-2-azabicyclo[2.2.1]heptane-2-carbonyl]-3-methylpyrazolo[1,5-a]pyridin-2-yl}-1-(cyclopropylmethyl)-1H-indol-6-yl)phenyl]imidazolidin-2-one] showed an IC50 of 120 nM.
With Cc1c(-c2cc3ccc(-c4ccc(N5CCCC5=O)cc4)cc3n2CC2CC2)nn2cc(C(=O)N3CC4CCC3[C@@H]4N)ccc12 (stereo partly drawn) [Example 329, 1-[4-(2-{6-[(7R)-7-Amino-2-azabicyclo[2.2.1]heptane-2-carbonyl]-3-methylpyrazolo[1,5-a]pyridin-2-yl}-1-(cyclopropylmethyl)-1H-indol-6-yl)phenyl]pyrrolidin-2-one] the IC50 was 50 nM.
Work on Cc1c(-c2cc3ccc(-c4ccc5cn[nH]c5c4F)cc3n2CC2CC2)nn2cc(C(=O)N3CC4CCC3[C@@H]4N)ccc12 (stereo partly drawn) [Example 330, (7R)-2-{2-[1-(Cyclopropylmethyl)-6-(7-fluoro-1H-indazol-6-yl)-1H-indol-2-yl]-3-methylpyrazolo[1,5-a]pyridine-6-carbonyl}-2-azabicyclo[2.2.1]heptan-7-amine] yielded an IC50 of 150 nM.
With Cc1cc(-c2ccc3cc(-c4nn5cc(C(=O)N6CC7CCC6[C@@H]7N)ccc5c4C)n(CC4CC4)c3c2)c(F)cc1C(N)=O (stereo partly drawn) [Example 331, 4-(2-{6-[(7R)-7-Amino-2-azabicyclo[2.2.1]heptane-2-carbonyl]-3-methylpyrazolo[1,5-a]pyridin-2-yl}-1-(cyclopropylmethyl)-1H-indol-6-yl)-5-fluoro-2-methylbenzamide] the IC50 was 60 nM.
With Cc1c(-c2cc3ccc(-c4ccc5cn[nH]c5c4)cc3n2CC2CC2)nn2cc(C(=O)N3CC4CCC3[C@@H]4N)ccc12 (stereo partly drawn) [Example 332, (7R)-2-{2-[1-(Cyclopropylmethyl)-6-(1H-indazol-6-yl)-1H-indol-2-yl]-3-methylpyrazolo[1,5-a]pyridine-6-carbonyl}-2-azabicyclo[2.2.1]heptan-7-amine] the IC50 was 20 nM.
With Cc1c(-c2cc3ccc(-c4ccc5[nH]ncc5c4)cc3n2CC2CC2)nn2cc(C(=O)N3CC4CCC3[C@@H]4N)ccc12 (stereo partly drawn) [Example 333, (7R)-2-{2-[1-(Cyclopropylmethyl)-6-(1H-indazol-5-yl)-1H-indol-2-yl]-3-methylpyrazolo[1,5-a]pyridine-6-carbonyl}-2-azabicyclo[2.2.1]heptan-7-amine] the IC50 was 20 nM.
Cc1cc(-c2ccc3cc(-c4nn5cc(C(=O)N6CC7CCC6[C@@H]7N)ccc5c4C)n(CC4CC4)c3c2)ccc1C(N)=O (stereo partly drawn) [Example 334, 4-(2-{6-[(7R)-7-Amino-2-azabicyclo[2.2.1]heptane-2-carbonyl]-3-methylpyrazolo[1,5-a]pyridin-2-yl}-1-(cyclopropylmethyl)-1H-indol-6-yl)-2-methylbenzamide] was tested, and the IC50 was 120 nM.
With Cc1c(-c2cc3ccc(-c4ccc(C(N)=O)cc4C(F)(F)F)cc3n2CC2CC2)nn2cc(C(=O)N3CC4CCC3[C@@H]4N)ccc12 (stereo partly drawn) [Example 335, 4-(2-{6-[(7R)-7-Amino-2-azabicyclo[2.2.1]heptane-2-carbonyl]-3-methylpyrazolo[1,5-a]pyridin-2-yl}-1-(cyclopropylmethyl)-1H-indol-6-yl)-3-(trifluoromethyl)benzamide] the IC50 was 60 nM.
Cc1c(-c2cc3ccc(-c4ccc(Cl)c5c(NS(C)(=O)=O)nn(C)c45)cc3n2CC2CC2)nn2cc(C(=O)N3CC4CCC3[C@@H]4N)ccc12 (stereo partly drawn) [Example 337, N-[7-(2-{6-[(7R)-7-Amino-2-azabicyclo[2.2.1]heptane-2-carbonyl]-3-methylpyrazolo[1,5-a]pyridin-2-yl}-1-(cyclopropylmethyl)-1H-indol-6-yl)-4-chloro-1-methyl-1H-indazol-3-yl]methanesulfonamide] was tested, and the IC50 was 20 nM.
Cc1c(-c2cc3ccc(-c4ccccc4N4CCNC4=O)cc3n2CC2CC2)nn2cc(C(=O)N3CC4CCC3[C@@H]4N)ccc12 (stereo partly drawn) [Example 338, 1-[2-(2-{6-[(7R)-7-Amino-2-azabicyclo[2.2.1]heptane-2-carbonyl]-3-methylpyrazolo[1,5-a]pyridin-2-yl}-1-(cyclopropylmethyl)-1H-indol-6-yl)phenyl]imidazolidin-2-one] gave an IC50 of 50 nM.
Work on Cc1c(-c2cc3ccc(-c4ccc(CNS(C)(=O)=O)cc4)cc3n2CC2CC2)nn2cc(C(=O)N3CCC[C@@H](N)C3)ccc12 [Example 342, N-{[4-(2-{6-[(3R)-3-Aminopiperidine-1-carbonyl]-3-methylpyrazolo[1,5-a]pyridin-2-yl}-1-(cyclopropylmethyl)-1H-indol-6-yl)phenyl]methyl}methanesulfonamide] yielded an IC50 of 930 nM.
